According to US20100267743A1, “3-(PHENOXYPYRROLIDIN-3-YL-METHYL)HETEROARYL, 3-(PHENYLPYRROLIDIN-3-YLMETHOXY)HETEROARYL, AND 3-(HETEROARYLPYRROLIDIN-3-YLMETHOXY)HETEROARYL COMPOUNDS” (priority 2009, published 2010):

Legend:
SERT = SERT (Homo sapiens, UniProt P31645); assay: hSERT radioligand binding assay (3H-citalopram); design: expressed in transfected cells; host or cells: HEK-293; details: hSERT membranes (HEK-293), 1.0 nM 3H-citalopram; for Ki: read-out: SERT pKi (converted)
Experimental: (§1) Membrane radioligand binding assays were used to measure inhibition of labeled ligand (^3H-citalopram or ^3H-nisoxetine or ^3H-WIN35428) binding to membranes prepared from cells expressing the respective human recombinant transporter (hSERT or hNET or hDAT) in order to determine the pKi values of test compounds at the transporters.
(§2) Recombinant human embryonic kidney (HEK-293) derived cell lines stably transfected with hSERT or hNET, respectively, were grown in DMEM medium supplemented with 10% dialyzed FBS (for hSERT) or FBS (for hNET), 100 μg/ml penicillin, 100 μg/ml streptomycin, 2 mM L-glutamine and 250 μg/ml of the aminoglycoside antibiotic G418, in a 5% CO2 humidified incubator at 37° C. When cultures reached 80% confluence, the cells were washed thoroughly in PBS (without […] and Mg^2+) and lifted with 5 mM EDTA in PBS. Cells were pelleted by centrifugation, resuspended in lysis buffer (10 mM Tris-HCl, pH7.5 containing 1 mM EDTA), homogenized, pelleted by centrifugation, then resuspended in 50 mM Tris-HCl, pH 7.5 and 10% sucrose at 4° C. Protein concentration of the membrane suspension was determined using a Bio-Rad Bradford Protein Assay kit. Membranes were snap frozen and stored at −80° C. Chinese hamster ovary membranes expressing hDAT (CHO-DAT) were purchased from PerkinElmer and stored at −80° C.
(§3) Binding assays were performed in a 96-well assay plate in a total volume of 200 μl assay buffer (50 mM Tris-HCl, 120 mM NaCl, 5 mM KCl, pH 7.4) with 0.5, 1, and 3 μg membrane protein, for SERT, NET and DAT, respectively.
(§4) Stock solutions (10 mM in DMSO) of test compound were prepared and serial dilutions made using Dilution Buffer (50 mM Tris-HCl, 120 mM NaCl, 5 mM KCl, pH 7.4, 0.1% BSA, 400 μM ascorbic acid).
(§5) Following a 60 minute incubation at 22° C. (or a period sufficient to reach equilibrium), the membranes were harvested by rapid filtration over a 96-well UniFilter GF/B plate, pretreated with 0.3% polyethyleneimine, and washed 6 times with 300 μl wash buffer (50 mM Tris-HCl, 0.9% NaCl, pH 7.5 at 4° C.). Plates were dried overnight at room temperature, ˜45 μl of MicroScint™-20 (Perkin Elmer) added and bound radioactivity quantitated via liquid scintillation spectroscopy. Inhibition curves and saturation isotherms were analyzed using GraphPad Prism Software package (GraphPad Software, Inc., San Diego, Calif.). IC50 values were generated from concentration response curves using the Sigmoidal Dose Response (variable slope) algorithm in Prism GraphPad. Kd and Bmax values for the radioligand were generated from saturation isotherms using the Saturation Binding Global Fit algorithm in Prism GraphPad. pKi (negative decadic logarithm of Ki) values for test compounds were calculated from the best-fit IC50 values, and the Kd value of the radioligand, using the Cheng-Prusoff equation (Cheng & Prusoff (1973) Biochem. Pharmacol. 22(23):3099-3108): Ki=IC50/(1+[L]/Kd), where [L]=concentration radioligand.

NET = NET (Homo sapiens, UniProt P23975); assay: hNET radioligand binding assay (3H-nisoxetine); design: expressed in transfected cells; host or cells: HEK-293; details: hNET membranes (HEK-293), 1.0 nM 3H-nisoxetine; for Ki: read-out: NET pKi (converted)
Experimental: as §1, §2, §3, §4, §5

SERT, sequence (P31645 whole entry): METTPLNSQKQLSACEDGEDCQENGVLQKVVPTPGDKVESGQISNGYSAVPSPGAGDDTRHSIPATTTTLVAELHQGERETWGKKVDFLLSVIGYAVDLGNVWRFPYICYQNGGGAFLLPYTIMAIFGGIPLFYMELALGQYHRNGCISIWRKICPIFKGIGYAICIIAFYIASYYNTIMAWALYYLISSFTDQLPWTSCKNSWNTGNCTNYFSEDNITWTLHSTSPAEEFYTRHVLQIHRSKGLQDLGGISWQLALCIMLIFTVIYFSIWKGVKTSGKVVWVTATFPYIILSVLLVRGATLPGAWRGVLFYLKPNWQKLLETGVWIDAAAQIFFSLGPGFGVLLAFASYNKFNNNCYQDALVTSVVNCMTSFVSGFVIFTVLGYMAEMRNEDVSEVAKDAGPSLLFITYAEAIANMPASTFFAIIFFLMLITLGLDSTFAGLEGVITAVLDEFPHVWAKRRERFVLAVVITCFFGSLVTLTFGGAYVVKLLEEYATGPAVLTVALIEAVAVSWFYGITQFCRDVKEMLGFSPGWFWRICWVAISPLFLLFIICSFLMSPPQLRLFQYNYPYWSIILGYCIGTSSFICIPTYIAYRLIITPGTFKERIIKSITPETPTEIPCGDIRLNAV
NET, sequence (P23975 whole entry): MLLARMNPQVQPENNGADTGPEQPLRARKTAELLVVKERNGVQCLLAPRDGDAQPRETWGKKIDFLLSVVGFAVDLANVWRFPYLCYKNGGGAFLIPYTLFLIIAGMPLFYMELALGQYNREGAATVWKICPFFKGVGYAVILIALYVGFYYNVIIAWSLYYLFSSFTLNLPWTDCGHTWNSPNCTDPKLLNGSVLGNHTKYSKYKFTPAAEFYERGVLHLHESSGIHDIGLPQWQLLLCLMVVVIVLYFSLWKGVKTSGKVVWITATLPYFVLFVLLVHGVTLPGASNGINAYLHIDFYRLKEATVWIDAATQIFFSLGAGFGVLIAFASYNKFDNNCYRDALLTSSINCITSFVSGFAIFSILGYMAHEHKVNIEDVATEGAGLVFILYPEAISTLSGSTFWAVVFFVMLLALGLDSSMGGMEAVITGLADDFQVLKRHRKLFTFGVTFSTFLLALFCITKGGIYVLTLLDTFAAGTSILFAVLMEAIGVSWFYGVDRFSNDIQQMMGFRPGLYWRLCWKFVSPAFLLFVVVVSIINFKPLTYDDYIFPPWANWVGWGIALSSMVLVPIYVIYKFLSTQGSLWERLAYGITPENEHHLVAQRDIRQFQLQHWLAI

| SMILES | SERT pKi (SERT) | NET pKi (NET) | Ki (SERT) [nM] | Ki (NET) [nM] |
| --- | --- | --- | --- | --- |
| Fc1cccnc1O[C@H](c1ccccc1)[C@@H]1CCNC1.O=C(O)C(F)(F)F [14-35] | ≧5.0 | ≧7.0 |  |  |
| Cc1cccnc1OC(c1ccccc1)C1CCNC1 (stereo not shown) [14-37] | ≧5.0 | ≧5.0 |  |  |
| COc1cccnc1O[C@@H](c1ccccc1)[C@H]1CCNC1.O=C(O)C(F)(F)F [14-39] | ≧7.0 | ≧5.0 |  |  |
| c1ccc(C(Oc2ccccn2)C2CCNC2)cc1 (stereo not shown) [14-40] |  |  | ≤ 10000 | ≤ 100 |
| O=C(O)C(F)(F)F.c1ccc([C@H](Oc2ccccn2)[C@H]2CCNC2)cc1 [14-41] | ≧7.0 | ≧7.0 |  |  |
| Fc1nc(OC(c2ccccc2)C2CCNC2)c(F)c(F)c1F (stereo not shown) [14-42] | ≧5.0 | ≧5.0 |  |  |
| Clc1ccc(O[C@@H](c2ccccc2)C2CCNC2)c(Cl)n1 (stereo partly shown) [15-1] |  |  | ≤ 100 | ≤ 100 |
| Clc1ccc(O[C@@H](c2ccccc2)[C@H]2CCNC2)c(Cl)n1.O=C(O)C(F)(F)F [15-3] | ≧7.0 | ≧7.0 |  |  |
| Clc1ncccc1O[C@@H](c1ccccc1)C1CCNC1 (stereo partly shown) [15-4] |  |  | ≤ 100 | ≤ 100 |
| Clc1ncccc1O[C@H](c1ccccc1)[C@@H]1CCNC1.O=C(O)C(F)(F)F [15-5] | ≧7.0 | ≧7.0 |  |  |
| Clc1ncccc1O[C@@H](c1ccccc1)[C@H]1CCNC1.O=C(O)C(F)(F)F [15-6] | ≧7.0 | ≧7.0 |  |  |
| Fc1ncccc1O[C@@H](c1ccccc1)[C@H]1CCNC1.O=C(O)C(F)(F)F [15-8] | ≧7.0 | ≧7.0 |  |  |
| Cc1ncccc1O[C@@H](c1ccccc1)[C@H]1CCNC1.O=C(O)C(F)(F)F [15-9] | ≧5.0 | ≧5.0 |  |  |
| FC(F)(F)COc1ncccc1O[C@@H](c1ccccc1)[C@H]1CCNC1.O=C(O)C(F)(F)F [15-11] | ≧7.0 | ≧7.0 |  |  |
| O=C(O)C(F)(F)F.c1ccc([C@H](Oc2cccnc2OC2CCCC2)[C@H]2CCNC2)cc1 [15-13] | ≧7.0 | ≧7.0 |  |  |
| COc1ncccc1O[C@@H](c1ccccc1)C1CCNC1 (stereo partly shown) [15-16] |  |  | ≤ 100 | ≤ 100 |
| COc1ncccc1O[C@@H](c1ccccc1)[C@H]1CCNC1.O=C(O)C(F)(F)F [15-17] | ≧7.0 | ≧7.0 |  |  |
| CCCOc1ncccc1O[C@@H](c1ccccc1)[C@H]1CCNC1.O=C(O)C(F)(F)F [15-19] | ≧7.0 | ≧7.0 |  |  |
| CCOc1ncccc1O[C@@H](c1ccccc1)[C@H]1CCNC1.O=C(O)C(F)(F)F [15-20] | ≧7.0 | ≧7.0 |  |  |
| Fc1cc(O[C@@H](c2ccccc2)[C@H]2CCNC2)cnc1F.O=C(O)C(F)(F)F [15-21] | ≧5.0 | ≧7.0 |  |  |
| Clc1ccc(O[C@@H](c2ccccc2)C2CCNC2)cn1 (stereo partly shown) [15-22] |  |  | ≤ 100 | ≤ 10000 |
| Clc1ccc(O[C@H](c2ccccc2)[C@@H]2CCNC2)cn1.O=C(O)C(F)(F)F [15-23] | ≧7.0 | ≧5.0 |  |  |
| Clc1ccc(O[C@@H](c2ccccc2)[C@H]2CCNC2)cn1.O=C(O)C(F)(F)F [15-24] | ≧7.0 | ≧5.0 |  |  |
| Fc1ccc(O[C@@H](c2ccccc2)C2CCNC2)cn1 (stereo partly shown) [15-25] |  |  | ≤ 100 | ≤ 10000 |

| SMILES | SERT pKi (SERT) | NET pKi (NET) | Ki (SERT) [nM] | Ki (NET) [nM] |
| --- | --- | --- | --- | --- |
| Fc1ccc(O[C@H](c2ccccc2)[C@@H]2CCNC2)cn1.O=C(O)C(F)(F)F [15-26] | ≧7.0 | ≧5.0 |  |  |
| Fc1ccc(O[C@@H](c2ccccc2)[C@H]2CCNC2)cn1.O=C(O)C(F)(F)F [15-27] | ≧7.0 | ≧5.0 |  |  |
| Cc1ccc(OC(c2ccccc2)C2CCNC2)cn1 (stereo not shown) [15-28] | ≧7.0 | ≧5.0 |  |  |
| COc1ccc(O[C@@H](c2ccccc2)C2CCNC2)cn1 (stereo partly shown) [15-29] |  |  | ≤ 100 | ≤ 10000 |
| COc1ccc(O[C@@H](c2ccccc2)[C@H]2CCNC2)cn1.O=C(O)C(F)(F)F [15-31] | ≧7.0 | ≧5.0 |  |  |
| c1ccc(C(Oc2cccnc2)C2CCNC2)cc1 (stereo not shown) [15-32] |  |  | ≤ 100 | ≤ 10000 |
| Cc1c(O[C@@H](c2ccccc2)[C@H]2CCNC2)ccnc1Cl.O=C(O)C(F)(F)F [16-1] | ≧7.0 | ≧5.0 |  |  |
| Clc1cc(O[C@@H](c2ccccc2)[C@H]2CCNC2)cc(Cl)n1.O=C(O)C(F)(F)F [16-2] | ≧7.0 | ≧5.0 |  |  |
| Clc1cc(O[C@@H](c2ccccc2)C2CCNC2)ccn1 (stereo partly shown) [16-3] |  |  | ≤ 100 | ≤ 10000 |
| Fc1cc(O[C@@H](c2ccccc2)[C@H]2CCNC2)ccn1.O=C(O)C(F)(F)F [16-6] | ≧5.0 | ≧5.0 |  |  |
| Fc1cncc([C@H](Oc2cccc3ccccc23)[C@H]2CCNC2)c1.O=C(O)C(F)(F)F [19-2] | ≧7.0 | ≧7.0 |  |  |
| O=C(O)C(F)(F)F.c1ccc2c(O[C@@H](c3ncco3)[C@H]3CCNC3)cccc2c1 [19-3] | ≧7.0 | ≧7.0 |  |  |
| O=C(O)C(F)(F)F.c1ccc2cc(O[C@@H](c3ncco3)[C@H]3CCNC3)ccc2c1 [20-1] | ≧7.0 | ≧7.0 |  |  |
| Fc1cncc([C@H](Oc2ccc3ccccc3c2)[C@H]2CCNC2)c1.O=C(O)C(F)(F)F [20-3] | ≧7.0 | ≧7.0 |  |  |
| c1ccc(C(Oc2cccc3ccccc23)C2CCNC2)cc1 (stereo not shown) [21-1] |  |  | ≤ 100 | ≤ 100 |
| Cc1ccccc1C(Oc1cccc2ccccc12)C1CCNC1 (stereo not shown) [21-3] |  |  | ≤ 100 | ≤ 100 |
| Fc1cccc(C(Oc2cccc3ccccc23)C2CCNC2)c1 (stereo not shown) [21-4] |  |  | ≤ 100 | ≤ 100 |
| Clc1cccc(C(Oc2cccc3ccccc23)C2CCNC2)c1 (stereo not shown) [21-5] |  |  | ≤ 100 | ≤ 100 |
| COc1cccc(C(Oc2cccc3ccccc23)C2CCNC2)c1 (stereo not shown) [21-6] |  |  | ≤ 100 | ≤ 100 |
| FC(F)(F)Oc1cccc(C(Oc2cccc3ccccc23)C2CCNC2)c1 (stereo not shown) [21-7] |  |  | ≤ 100 | ≤ 10000 |
| COc1ccc2ccccc2c1OC(c1ccccc1)C1CCNC1 (stereo not shown) [21-8] |  |  | ≤ 100 | ≤ 100 |
| Fc1ccc(O[C@@H](c2ccccc2)C2CCNC2)c2ccccc12 (stereo partly shown) [21-9] |  |  | ≤ 100 | ≤ 100 |
| COc1cc(Cl)ccc1O[C@@H](c1cncc(F)c1)[C@H]1CCNC1 [Example 1] |  |  | ≤ 100 | ≤ 100 |
